According to patent publication US20250339360A1, “COSMETIC COMPOSITIONS COMPRISING RETINOIDS AND MOISTURIZERS AND METHODS FOR STABLIZING RETINOIDS” (ELC Management LLC, priority 2024, published 2025):

Experiment: Retinoid storage stability in stability chamber, hydroxypinacolone retinoate analysed by UPLC/UV-VIS at 360 nm
Format: physicochemical
Conditions: 6-month testing period, 25° C. and 40° C., within measurement accuracy
Method: The above samples were tested under two sets of temperature conditions. Each sample was placed in a stability chamber maintained at either room temperature (25° C.±2° C.) or accelerated (elevated) temperature (40° C.±2° C.). Each stability chamber was maintained at a relative humidity of 60%+5%. Stability of the retinoid was monitored at various time points: initially, after one month, after two months, after three months, and after six months. Assessment of the retinoid stability was conducted by removing a sample from the stability chamber and analyzing for hydroxypinacolone retinoate by UPLC/UV-VIS (Waters ACQUITY UPLC H-Class PLUS System with a photodiode array (PDA) detector). A wavelength of 360 nm was used for analyses. The measured concentrations were determined with a measurement accuracy of about +10%. The initial and subsequent concentrations are believed to deviate from the expected 0.1 wt % due to some initial degradation of the stock hydroxypinacolone retinoate.

Hydroxypinacolone retinoate concentration over the testing period: remained essentially constant
SMILES: CC1=C(/C=C/C(C)=C/C=C/C(C)=C/C(=O)OCC(=O)C(C)(C)C)C(C)(C)CCC1 [hydroxypinacolone retinoate]
